# Experimental data as given in article PMC12005767 (Advanced Science, 2025).
# Columns and labels:
# HDAC1 = biological target: T1, HDAC1 (Homo sapiens, UniProt Q13547); assay: In vitro HDACs inhibition fluorescence assay, HDAC1; format: biochemical; details: mean ± SEM
# T1 construct: purchased BPS Bioscience
# Protocol: (§1) In Vitro HDACs Inhibition Fluorescence Assay: For the inhibitory activity against HDAC1‐10, enzymes were also procured from BPS Bioscience. The in vitro […] inhibition assays were conducted following the established method described previously.^[ [45] ^] The working concentrations of HDAC1‐10 were 4 × 10^−9 M. The fluorogenic substrate of HDAC1, 2, 3, and 6 was Boc‐Lys (acetyl)‐AMC, and the substrate of HDAC4, 5, 7, 8, 9, and 10 was Boc‐Lys (trifluoroacetyl) AMC. The developer solution consists of 30 mg mL^−1 trypsin and 5 × 10^−6 M TSA. A standing period of 30 min was sufficient before assessing the fluorescence intensity.
# HDAC9 = biological target: T2, HDAC9 (Homo sapiens, UniProt Q9UKV0); assay: In vitro HDACs inhibition fluorescence assay, HDAC9; format: biochemical; details: mean ± SEM
# T2 construct: purchased BPS Bioscience
# Protocol: as §1
# HDAC10 = biological target: T3, HDAC10 (Homo sapiens, UniProt Q969S8); assay: In vitro HDACs inhibition fluorescence assay, HDAC10; format: biochemical; details: mean ± SEM
# T3 construct: purchased BPS Bioscience
# Protocol: as §1
# [1] = test system: acetylation of histone H3, histone H4, and α-tubulin; assay: Acetylation of histone H3, histone H4 and α-tubulin in HEK293T cells (immunoblot); format: cell-based; details: HEK293T cells, 0.25, 0.5 and 1 × 10^−6 M, 24 h
# Protocol: (§2) Western blot was carried out as described.^[ [49] ^] In brief, samples were lysed with a lysis buffer. The same quantity of total proteins (40–60 µg) from each sample was separated on SDS‐PAGE followed by transfer onto a nitrocellulose filter membrane and incubation with the indicated antibodies. After incubation with secondary antibodies, the protein bands were visualized using a chemiluminescence imaging system. All samples in the same group were processed simultaneously.
# HepG2 cells = assay: FFA-induced lipid accumulation in HepG2 cells (Oil Red O); format: cell-based, human; details: 24 h
# Protocol: For the lipid accumulation experiment, HepG2 cells were incubated for 24 h in DMEM containing 0.5 × 10^−3 M of a mixture of free fatty acids (FFA; oleic acid: palmitic acid = 2:1) and 1% FFA‐free bovine serum albumin to induce intracellular lipid accumulation, together with B6 treatment.
# Cells were fixed with 4% paraformaldehyde, followed by sequential staining with Oil Red O and hematoxylin.
# [2] = test system: MASLD mice (60 kcal% fat diet); assay: High fat diet-induced MASLD model in mice; format: in vivo, C57BL/6J mice
# Protocol: For pharmacology experiments, mice were divided into five groups (n = 8 per group): control group (C), B6 10 mg kg^−1 group [B6 (10)], high fat diet group (H), HFD + 5 mg kg^−1 B6 group [HB6 (5)], and HFD + 10 mg kg^−1 B6 group [HB6 (10). The 60 kcal% fat diet (MD12033) used for establishing the MASLD model was purchased from Medicience (Yangzhou, China). The C and B6 (10) groups were fed a chow diet for 12 weeks, followed by gavage administration of vehicle and 10 mg kg^−1 B6 for the subsequent four weeks, respectively. The H, HB6 (5) and HB6 (10) groups were fed a 60 kcal% fat diet for 12 weeks, followed by gavage administration of vehicle, 5 mg kg^−1 B6 and 10 mg kg^−1 B6 for the subsequent four weeks, respectively.
# TG, FFA, and TC kits were purchased from Solarbio (Beijing, China). The liver tissues from mice were homogenized and processed according to the instructions. […]
# ALT, AST, ALP, TG, NEFA, CHO, LDL‐C, and HDL‐C were assessed using a Hitachi 7020 automatic analyzer (Hitachi, Tokyo, Japan). […]
# Food intake, locomotor VO2, VCO2, and heat production were measured by the TSE system, and RER were calculated using the manufacturer's system software.
# as §2
# Cells and liver tissues were extracted for total RNA. A reverse transcription kit was used to synthesize cDNA. qRT‐PCR was performed with the primers listed in Table S1 (Supporting Information) using the SYBR green PCR master mix. The coding sequence of the target gene was found in NCBI, and Primer3 (v.0.4.0) was used to design amplification primers. The results were normalized by β‐actin in the corresponding sample.
# ICR mice = assay: Subacute toxicity study in ICR mice; format: in vivo
# Protocol: For evaluation of subacute toxicity, ICR mice were divided into two groups (n = 8 per group (4M, 4F)). The B6 was prepared in vehicle (10% DMSO and 90% 0.5% HPMC aqueous solution) to administer once daily, by oral gavage for 30 d in the treatment groups. To the control groups, vehicle was administered orally. The animals were monitored for clinical and behavioral symptoms such as body weight, diarrhea, immobility, and mortality during the first day and thereafter for 30 d.
# [3] = 50 mg kg^−1 p.o. daily for 30 d, vs control group
# T3 sequence (Q969S8 whole entry): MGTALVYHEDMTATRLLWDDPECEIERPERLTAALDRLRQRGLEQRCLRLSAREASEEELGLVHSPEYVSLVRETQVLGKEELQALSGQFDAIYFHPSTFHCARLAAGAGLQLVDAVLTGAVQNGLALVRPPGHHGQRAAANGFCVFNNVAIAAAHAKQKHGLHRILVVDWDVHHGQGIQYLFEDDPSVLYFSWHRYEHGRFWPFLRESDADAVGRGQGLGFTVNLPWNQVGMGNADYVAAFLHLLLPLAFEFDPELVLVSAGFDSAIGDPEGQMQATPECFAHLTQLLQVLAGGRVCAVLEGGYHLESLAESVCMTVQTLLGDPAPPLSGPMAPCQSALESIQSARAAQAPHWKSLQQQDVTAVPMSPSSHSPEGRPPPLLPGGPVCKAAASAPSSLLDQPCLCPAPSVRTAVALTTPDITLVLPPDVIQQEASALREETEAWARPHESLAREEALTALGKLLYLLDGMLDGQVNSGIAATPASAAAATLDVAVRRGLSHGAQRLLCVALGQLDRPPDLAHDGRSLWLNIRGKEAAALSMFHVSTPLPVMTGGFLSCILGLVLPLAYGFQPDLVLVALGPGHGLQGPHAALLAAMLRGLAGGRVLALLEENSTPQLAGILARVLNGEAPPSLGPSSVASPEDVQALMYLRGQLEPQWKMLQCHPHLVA
# T2 sequence (Q9UKV0 whole entry): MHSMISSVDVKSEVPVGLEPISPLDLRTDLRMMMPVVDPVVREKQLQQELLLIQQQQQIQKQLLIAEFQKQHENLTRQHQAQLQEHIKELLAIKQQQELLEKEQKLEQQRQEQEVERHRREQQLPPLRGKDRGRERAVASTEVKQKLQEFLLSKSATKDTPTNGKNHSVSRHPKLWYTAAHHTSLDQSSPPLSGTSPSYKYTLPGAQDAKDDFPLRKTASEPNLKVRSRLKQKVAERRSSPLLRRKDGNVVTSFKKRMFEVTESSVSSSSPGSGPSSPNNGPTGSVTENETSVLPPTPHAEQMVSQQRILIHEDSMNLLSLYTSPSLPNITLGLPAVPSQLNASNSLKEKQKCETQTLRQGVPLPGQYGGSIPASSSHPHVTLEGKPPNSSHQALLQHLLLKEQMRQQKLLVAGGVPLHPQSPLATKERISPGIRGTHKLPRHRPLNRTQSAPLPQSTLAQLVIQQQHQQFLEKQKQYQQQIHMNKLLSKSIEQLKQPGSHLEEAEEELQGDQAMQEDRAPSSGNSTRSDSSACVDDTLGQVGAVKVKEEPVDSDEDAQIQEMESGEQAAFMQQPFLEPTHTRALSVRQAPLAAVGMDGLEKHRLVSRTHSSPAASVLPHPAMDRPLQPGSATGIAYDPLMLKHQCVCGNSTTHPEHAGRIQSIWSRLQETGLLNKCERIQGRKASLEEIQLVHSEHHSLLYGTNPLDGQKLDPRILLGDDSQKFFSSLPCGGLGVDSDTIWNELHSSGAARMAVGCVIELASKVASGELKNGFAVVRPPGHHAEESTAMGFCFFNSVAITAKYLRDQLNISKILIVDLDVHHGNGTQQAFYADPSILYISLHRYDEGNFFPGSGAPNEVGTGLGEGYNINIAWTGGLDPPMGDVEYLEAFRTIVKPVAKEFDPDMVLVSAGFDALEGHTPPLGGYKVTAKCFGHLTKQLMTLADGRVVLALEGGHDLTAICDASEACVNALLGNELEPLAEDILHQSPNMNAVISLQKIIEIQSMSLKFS
# T1 sequence (Q13547 whole entry): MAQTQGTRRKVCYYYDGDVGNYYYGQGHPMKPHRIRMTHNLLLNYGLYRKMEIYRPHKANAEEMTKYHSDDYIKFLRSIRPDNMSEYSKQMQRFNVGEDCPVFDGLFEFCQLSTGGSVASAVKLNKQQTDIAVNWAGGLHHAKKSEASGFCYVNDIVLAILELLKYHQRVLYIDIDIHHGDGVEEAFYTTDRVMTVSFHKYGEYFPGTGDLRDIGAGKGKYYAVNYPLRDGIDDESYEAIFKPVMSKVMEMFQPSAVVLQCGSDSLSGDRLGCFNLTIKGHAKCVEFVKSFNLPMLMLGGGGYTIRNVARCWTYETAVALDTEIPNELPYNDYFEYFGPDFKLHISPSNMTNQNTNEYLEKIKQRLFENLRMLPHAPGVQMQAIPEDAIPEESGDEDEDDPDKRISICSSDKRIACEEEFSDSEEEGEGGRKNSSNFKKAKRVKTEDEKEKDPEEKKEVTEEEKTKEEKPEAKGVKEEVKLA
smiles,measurement,setting,value
CCCCCOCCCCCNNC(=O)c1ccc(CNC(=O)c2ccccc2)cc1 [B6],IC50,HDAC1,> 10 µM
same,IC50,HDAC9,> 10 µM
same,IC50,HDAC10,> 10 µM
same,acetylation levels of histones H3 and H4 or tubulin,[1],no effect
same,FFA-induced lipid accumulation,HepG2 cells,Comparable reduction in lipid accumulation
same,"body weight, chow diet (C group vs B6 (10) group)","[2]; 10 mg kg^−1 p.o., chow diet",no significant differences in body weight
same,body weight of high fat diet mice,"[2]; 5 or 10 mg kg^−1 p.o., final 4 weeks, dose-dependent",reduction in body weight
same,"blood lipids NEFA, CHO, LDL-C",[2]; HFD mice,reduce the elevated levels of blood lipids
same,glucose tolerance test and insulin tolerance test,[2]; HFD mice,improved glucose tolerance and insulin resistance
same,phosphorylation of AMPKα at Thr172 in mouse liver,[2]; HFD mice,restores the phosphorylation level
same,"serum ALT, AST and ALP (liver damage)",[2]; HFD mice,alleviate liver damage
same,serum HDL-C,[2]; HFD mice,no significant effect
same,"liver size and weight, body fat mass","[2]; HFD mice, 5 or 10 mg kg^−1 p.o.",effectively controlled
same,"hepatic lipid content (TG, FFA, TC)","[2]; HFD mice, 5 or 10 mg kg^−1 p.o., dose-dependent",reduction in hepatic lipid content
same,"O2 consumption (VO2), CO2 production (VCO2) and heat","[2]; HFD mice, compared to H group",increase
same,"liver protein and mRNA levels of CPT1A, PGC1α and PPARα","[2]; HFD mice, compared to H group",restored
same,respiratory exchange ratio (RER),"[2]; HFD mice, metabolic cages",slight increase in RER value
same,"liver protein and mRNA expression of SREBP1c, FASN and SCD1","[2]; HFD mice, dose-dependent",downregulation
same,food intake of mice,"[2]; mouse, in vivo",no effect on food intake
same,overall health and behavior,"ICR mice; 50 mg kg^−1 p.o. daily for 30 d, ICR mice",no signs of toxicity
same,body weight of male and female mice,ICR mice; [3],did not induce any significant abnormal changes
same,"histopathological evaluations of liver, kidneys, heart, spleen and lungs",ICR mice; [3],no significant differences
same,therapeutic window,ICR mice; 50 mg kg^−1 vs effective dose 5 mg kg^−1,at least tenfold
